Test results taken from ChEMBL document CHEMBL1201862, “PubChem BioAssay data set” (2004).
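Grown in 96-well plates, cells were treated for 48 hours with each compound at five concentrations. Insufficient inhibition: endpoint recorded as highest concentration tested. GI50 = concentration required for 50% inhibition of growth.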 Active and inactive are the calls of the source. Rule as the data show it: active = GI50 up to about 1.1 µM and inactive = higher.

What was measured:
Experiment in all cases: inhibition of tumour cell growth, NCI panel, 48 h
A549 = system: A549
BT-549 = system: BT-549
COLO 205 = system: COLO 205
HCT-15 = system: HCT-15
HOP-92 = system: HOP-92
MDA-N = system: MDA-N
MOLT-4 = system: MOLT-4
Malme-3M = system: Malme-3M
NCI-H23 = system: NCI-H23
NCI-H460 = system: NCI-H460
NCI-H522 = system: NCI-H522
OVCAR-3 = system: OVCAR-3
OVCAR-8 = system: OVCAR-8
SK-MEL-5 = system: SK-MEL-5
SNB-75 = system: SNB-75
U-251 = system: U-251
UACC-257 = system: UACC-257
UO-31 = system: UO-31
UACC-62 = system: UACC-62
Hs-578T = system: Hs-578T

Row | SMILES | GI50 (A549) | GI50 (BT-549) | GI50 (COLO 205) | GI50 (HCT-15) [µM] | GI50 (HOP-92) | GI50 (MDA-N) | GI50 (MOLT-4) | GI50 (Malme-3M) | GI50 (NCI-H23) | GI50 (NCI-H460) | GI50 (NCI-H522) | GI50 (OVCAR-3) | GI50 (OVCAR-8) | GI50 (SK-MEL-5) | GI50 (SNB-75) | GI50 (U-251) | GI50 (UACC-257) | GI50 (UO-31) | GI50 (UACC-62) | GI50 (Hs-578T)
1 | CC(C)(C)OC/C=C1\C(=O)O[C@H]2C[C@@H](O[Si](C)(C)C(C)(C)C)C[C@@H]12 | 69.2 µM (inactive) | > 100 µM (inactive) | > 100 µM (inactive) | > 100 | 36.4 µM (inactive) | 90.4 µM (inactive) | 25.1 µM (inactive) | > 100 µM (inactive) | 52.4 µM (inactive) | > 100 µM (inactive) | 33.5 µM (inactive) | 49.9 µM (inactive) | 81.1 µM (inactive) | > 100 µM (inactive) | 63.7 µM (inactive) | 83 µM (inactive) | 62.4 µM (inactive) | 53.8 µM (inactive) | – | –
2 | O=C(CCCN1CCC2(CC1)CC(=O)N(N1CCOCC1)C2=O)c1ccccc1 | > 100 µM (inactive) | 14.6 µM (inactive) | > 100 µM (inactive) | > 100 | – | > 100 µM (inactive) | > 100 µM (inactive) | > 100 µM (inactive) | > 100 µM (inactive) | – | > 100 µM (inactive) | > 100 µM (inactive) | > 100 µM (inactive) | > 100 µM (inactive) | > 100 µM (inactive) | > 100 µM (inactive) | > 100 µM (inactive) | > 100 µM (inactive) | > 100 µM (inactive) | –
3 | COc1ccc(Nc2ccc3ccccc3c2-c2c(O)ccc3ccccc23)cc1 | – | 24.4 µM (inactive) | 24 µM (inactive) | 17.6 | 4.16 µM (inactive) | 12.6 µM (inactive) | 10.1 µM (inactive) | – | 15.2 µM (inactive) | 16.4 µM (inactive) | 18.2 µM (inactive) | 14.6 µM (inactive) | 18.1 µM (inactive) | 17 µM (inactive) | 19.9 µM (inactive) | 22.6 µM (inactive) | 22.1 µM (inactive) | 13.6 µM (inactive) | 29.9 µM (inactive) | –
4 | CC1(C)SCc2nc3ccccc3n21 | > 100 µM (inactive) | – | > 100 µM (inactive) | > 100 | > 100 µM (inactive) | > 100 µM (inactive) | > 100 µM (inactive) | > 100 µM (inactive) | > 100 µM (inactive) | > 100 µM (inactive) | > 100 µM (inactive) | > 100 µM (inactive) | > 100 µM (inactive) | > 100 µM (inactive) | 0.0119 µM (active) | > 100 µM (inactive) | > 100 µM (inactive) | > 100 µM (inactive) | > 100 µM (inactive) | > 100 µM (inactive)
5 | CC(=O)Nc1ccc(N2C(=O)/C(=C\c3cccc(Oc4ccccc4)c3)S(=O)(=O)C2c2ccccc2)cc1 (stereo not given) | > 100 µM (inactive) | > 100 µM (inactive) | > 100 µM (inactive) | > 100 | 55.2 µM (inactive) | 27.2 µM (inactive) | 28.2 µM (inactive) | > 100 µM (inactive) | > 100 µM (inactive) | > 100 µM (inactive) | 71.8 µM (inactive) | 49.4 µM (inactive) | 35.7 µM (inactive) | 57.5 µM (inactive) | 81.3 µM (inactive) | 39.3 µM (inactive) | > 100 µM (inactive) | 29.7 µM (inactive) | 83.2 µM (inactive) | –
6 | O=C1Nc2ccc(Cl)cc2C(=O)N2CCC[C@@H]12 | > 100 µM (inactive) | > 100 µM (inactive) | > 100 µM (inactive) | > 100 | > 100 µM (inactive) | > 100 µM (inactive) | > 100 µM (inactive) | > 100 µM (inactive) | > 100 µM (inactive) | > 100 µM (inactive) | > 100 µM (inactive) | > 100 µM (inactive) | > 100 µM (inactive) | > 100 µM (inactive) | > 100 µM (inactive) | > 100 µM (inactive) | > 100 µM (inactive) | > 100 µM (inactive) | > 100 µM (inactive) | –
7 | O=c1c(O)c(-c2ccccc2)oc2c(CP(=O)(O)O)cccc12 | > 100 µM (inactive) | > 100 µM (inactive) | > 100 µM (inactive) | > 100 | – | > 100 µM (inactive) | > 100 µM (inactive) | > 100 µM (inactive) | > 100 µM (inactive) | > 100 µM (inactive) | > 100 µM (inactive) | > 100 µM (inactive) | – | > 100 µM (inactive) | – | > 100 µM (inactive) | > 100 µM (inactive) | – | > 100 µM (inactive) | –
8 | [N-]=[N+]=CC(=O)CCC(=O)N(c1ccccc1)c1ccccc1 | > 10 µM (inactive) | > 10 µM (inactive) | – | > 10 | > 10 µM (inactive) | > 10 µM (inactive) | > 10 µM (inactive) | > 10 µM (inactive) | > 10 µM (inactive) | > 10 µM (inactive) | – | > 10 µM (inactive) | > 10 µM (inactive) | > 10 µM (inactive) | > 10 µM (inactive) | > 10 µM (inactive) | > 10 µM (inactive) | > 10 µM (inactive) | – | –
9 | c1ccc(CSC(SCc2ccccc2)c2ccc3c(c2)OCO3)cc1 | > 10 µM (inactive) | – | > 10 µM (inactive) | > 10 | > 10 µM (inactive) | > 10 µM (inactive) | > 10 µM (inactive) | > 10 µM (inactive) | > 10 µM (inactive) | > 10 µM (inactive) | > 10 µM (inactive) | > 10 µM (inactive) | > 10 µM (inactive) | > 10 µM (inactive) | > 10 µM (inactive) | > 10 µM (inactive) | > 10 µM (inactive) | > 10 µM (inactive) | > 10 µM (inactive) | > 10 µM (inactive)
10 | CC(C)N1CN(c2ccccc2)C2(CCN(CCCC(=O)c3ccc(F)cc3)CC2)C1=O | 4.68 µM (inactive) | – | 0.483 µM (active) | 6.31 | 3.78 µM (inactive) | 14.9 µM (inactive) | 5.92 µM (inactive) | 14.7 µM (inactive) | 6.7 µM (inactive) | 21.1 µM (inactive) | 21 µM (inactive) | 22 µM (inactive) | 24 µM (inactive) | 2.55 µM (inactive) | 36.1 µM (inactive) | 26.7 µM (inactive) | 2.74 µM (inactive) | 19.4 µM (inactive) | 17.9 µM (inactive) | 16.1 µM (inactive)
11 | COC(=O)[C@]1(c2cc3ccccc3[nH]2)CC2CN(C(=O)OCc3ccccc3)C1C=C2OC (stereo not given in full) | 31.5 µM (inactive) | 31 µM (inactive) | 19 µM (inactive) | 34.8 | 32.5 µM (inactive) | 32.3 µM (inactive) | 22.2 µM (inactive) | 28.9 µM (inactive) | 40.7 µM (inactive) | 33.1 µM (inactive) | 27.2 µM (inactive) | 24 µM (inactive) | 43.4 µM (inactive) | – | 23 µM (inactive) | 26.6 µM (inactive) | 23 µM (inactive) | – | 16.8 µM (inactive) | –
